How the values were obtained:
Assay in all cases: relative viability (nuclei count vs DMSO), 5 days (fraction); higher = more cells survive
NCI-H2023 = test system: NCI-H2023
Procedure, shortened: (§1)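 The day after seeding in 1536-well plates, lung cancer cell lines were treated by pin tool with a single drug, or with a fixed anchor-drug dose together with five library-drug doses (not always all listed) in √10 steps. After 5 days, a combined fix-and-stain solution (final 0.05% Triton X-100, 1% formaldehyde, 1 ug/ml Hoechst) was added. Nuclei counted on 4× images gave relative viability as treated counts over vehicle counts, reported as the median of duplicate plates.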

SW 900 = test system: SW 900
Procedure, shortened: as §1

NCI-H1915 = test system: NCI-H1915
Procedure, shortened: as §1

UMC-11 = test system: UMC-11
Procedure, shortened: as §1

NCI-H1975 = test system: NCI-H1975
Procedure, shortened: as §1

LC-2-ad = test system: LC-2-ad
Procedure, shortened: as §1

CAL-12T = test system: CAL-12T
Procedure, shortened: as §1

NCI-H1395 = test system: NCI-H1395
Procedure, shortened: as §1

NCI-H2405 = test system: NCI-H2405
Procedure, shortened: as §1

A-427 = test system: A-427
Procedure, shortened: as §1

COR-L 105 = test system: COR-L 105
Procedure, shortened: as §1

HCC-44 = test system: HCC-44
Procedure, shortened: as §1

HCC-15 = test system: HCC-15
Procedure, shortened: as §1

LCLC-97TM1 = test system: LCLC-97TM1
Procedure, shortened: as §1

NCI-H2342 = test system: NCI-H2342
Procedure, shortened: as §1

SW 1573 = test system: SW 1573
Procedure, shortened: as §1

NCI-H1734 = test system: NCI-H1734
Procedure, shortened: as §1

NCI-H2347 = test system: NCI-H2347
Procedure, shortened: as §1

NCI-H838 = test system: NCI-H838
Procedure, shortened: as §1

NCI-H520 = test system: NCI-H520
Procedure, shortened: as §1

EPLC-272H = test system: EPLC-272H
Procedure, shortened: as §1

With `Cc1cn(-c2cc(NC(=O)c3ccc(C)c(Nc4nccc(-c5cccnc5)n4)c3)cc(C(F)(F)F)c2)cn1` [Nilotinib] + O=C(CCCCCCC(=O)Nc1ccccc1)NO [Vorinostat] (partner 1 µM) the relative viability (NCI-H2023; first compound 0.001 µM) was 0.469, the relative viability (NCI-H2023; first compound 0.003162 µM) was 0.455 and the relative viability (NCI-H2023; first compound 0.01 µM) was 1.06. For the same compound, the relative viability (NCI-H2023; first compound 0.03162 µM) was 0.41, the relative viability (NCI-H2023; first compound 0.1 µM) was 0.174 and the relative viability (SW 900; first compound 0.003162 µM) was 0.456. It also gave a relative viability (SW 900; first compound 0.01 µM) of 0.624, a relative viability (SW 900; first compound 0.03162 µM) of 0.216 and a relative viability (SW 900; first compound 0.1 µM) of 0.368. The relative viability (NCI-H1915; first compound 0.001 µM) was 0.454, the relative viability (NCI-H1915; first compound 0.003162 µM) was 0.488 and the relative viability (NCI-H1915; first compound 0.01 µM) was 0.501. For the same compound, the relative viability (NCI-H1915; first compound 0.03162 µM) was 0.385, the relative viability (NCI-H1915; first compound 0.1 µM) was 0.299 and the relative viability (UMC-11; first compound 0.001 µM) was 0.359. It also gave a relative viability (UMC-11; first compound 0.003162 µM) of 0.398, a relative viability (UMC-11; first compound 0.01 µM) of 0.346 and a relative viability (UMC-11; first compound 0.03162 µM) of 0.336. For the same compound, the relative viability (UMC-11; first compound 0.1 µM) was 0.458, the relative viability (NCI-H1975; first compound 0.001 µM) was 0.598 and the relative viability (NCI-H1975; first compound 0.003162 µM) was 0.742. It also gave a relative viability (NCI-H1975; first compound 0.01 µM) of 0.702, a relative viability (NCI-H1975; first compound 0.03162 µM) of 0.489 and a relative viability (NCI-H1975; first compound 0.1 µM) of 0.643. The relative viability (LC-2-ad; first compound 0.001 µM) was 0.644, the relative viability (LC-2-ad; first compound 0.003162 µM) was 0.851 and the relative viability (LC-2-ad; first compound 0.01 µM) was 0.772. The relative viability (LC-2-ad; first compound 0.03162 µM) was 0.545, the relative viability (LC-2-ad; first compound 0.1 µM) was 0.318 and the relative viability (CAL-12T; first compound 0.001 µM) was 0.673. It also gave a relative viability (CAL-12T; first compound 0.003162 µM) of 0.704, a relative viability (CAL-12T; first compound 0.01 µM) of 0.994 and a relative viability (CAL-12T; first compound 0.03162 µM) of 0.573. For the same compound, the relative viability (CAL-12T; first compound 0.1 µM) was 0.566, the relative viability (NCI-H1395; first compound 0.001 µM) was 0.728 and the relative viability (NCI-H1395; first compound 0.01 µM) was 0.616. It also gave a relative viability (NCI-H1395; first compound 0.03162 µM) of 0.59, a relative viability (NCI-H1395; first compound 0.1 µM) of 0.473 and a relative viability (NCI-H2405; first compound 0.001 µM) of 0.946. For the same compound, the relative viability (NCI-H2405; first compound 0.003162 µM) was 0.927, the relative viability (NCI-H2405; first compound 0.03162 µM) was 0.763 and the relative viability (NCI-H2405; first compound 0.1 µM) was 0.521. For the same compound, the relative viability (A-427; first compound 0.001 µM) was 0.839, the relative viability (A-427; first compound 0.003162 µM) was 0.892 and the relative viability (A-427; first compound 0.01 µM) was 0.935. It also gave a relative viability (A-427; first compound 0.03162 µM) of 0.963, a relative viability (A-427; first compound 0.1 µM) of 0.775 and a relative viability (COR-L 105; first compound 0.001 µM) of 0.744. For the same compound, the relative viability (COR-L 105; first compound 0.003162 µM) was 1.09, the relative viability (COR-L 105; first compound 0.01 µM) was 0.81 and the relative viability (COR-L 105; first compound 0.03162 µM) was 0.76. For the same compound, the relative viability (COR-L 105; first compound 0.1 µM) was 0.672, the relative viability (HCC-44; first compound 0.001 µM) was 1.07 and the relative viability (HCC-44; first compound 0.003162 µM) was 1.06. For the same compound, the relative viability (HCC-44; first compound 0.01 µM) was 1.09, the relative viability (HCC-44; first compound 0.1 µM) was 1.07 and the relative viability (HCC-15; first compound 0.001 µM) was 0.791. The relative viability (HCC-15; first compound 0.003162 µM) was 0.913, the relative viability (HCC-15; first compound 0.01 µM) was 0.936 and the relative viability (HCC-15; first compound 0.03162 µM) was 0.616. For the same compound, the relative viability (HCC-15; first compound 0.1 µM) was 0.761, the relative viability (LCLC-97TM1; first compound 0.001 µM) was 0.605 and the relative viability (LCLC-97TM1; first compound 0.003162 µM) was 0.891. For the same compound, the relative viability (LCLC-97TM1; first compound 0.01 µM) was 0.964, the relative viability (LCLC-97TM1; first compound 0.03162 µM) was 0.515 and the relative viability (LCLC-97TM1; first compound 0.1 µM) was 0.102. For the same compound, the relative viability (NCI-H2342; first compound 0.001 µM) was 0.675, the relative viability (NCI-H2342; first compound 0.003162 µM) was 0.685 and the relative viability (NCI-H2342; first compound 0.01 µM) was 0.668. The relative viability (NCI-H2342; first compound 0.03162 µM) was 0.681, the relative viability (NCI-H2342; first compound 0.1 µM) was 0.655 and the relative viability (SW 1573; first compound 0.001 µM) was 0.527. For the same compound, the relative viability (SW 1573; first compound 0.003162 µM) was 0.849, the relative viability (SW 1573; first compound 0.01 µM) was 0.977 and the relative viability (SW 1573; first compound 0.03162 µM) was 0.438. The relative viability (SW 1573; first compound 0.1 µM) was 0.222, the relative viability (NCI-H1734; first compound 0.001 µM) was 0.761 and the relative viability (NCI-H1734; first compound 0.003162 µM) was 0.803. It also gave a relative viability (NCI-H1734; first compound 0.01 µM) of 0.832, a relative viability (NCI-H1734; first compound 0.03162 µM) of 0.626 and a relative viability (NCI-H1734; first compound 0.1 µM) of 0.371. It also gave a relative viability (NCI-H2347; first compound 0.001 µM) of 0.601, a relative viability (NCI-H2347; first compound 0.003162 µM) of 0.516 and a relative viability (NCI-H2347; first compound 0.01 µM) of 0.712. It also gave a relative viability (NCI-H2347; first compound 0.03162 µM) of 0.495, a relative viability (NCI-H2347; first compound 0.1 µM) of 0.431 and a relative viability (NCI-H838; first compound 0.001 µM) of 0.693. The relative viability (NCI-H838; first compound 0.003162 µM) was 0.783, the relative viability (NCI-H838; first compound 0.01 µM) was 0.753 and the relative viability (NCI-H838; first compound 0.03162 µM) was 0.726. The relative viability (NCI-H838; first compound 0.1 µM) was 0.688, the relative viability (NCI-H520; first compound 0.001 µM) was 0.584 and the relative viability (NCI-H520; first compound 0.003162 µM) was 0.79. For the same compound, the relative viability (NCI-H520; first compound 0.01 µM) was 0.81, the relative viability (NCI-H520; first compound 0.03162 µM) was 0.617 and the relative viability (NCI-H520; first compound 0.1 µM) was 0.699. It also gave a relative viability (EPLC-272H; first compound 0.001 µM) of 0.376, a relative viability (EPLC-272H; first compound 0.003162 µM) of 0.331 and a relative viability (EPLC-272H; first compound 0.01 µM) of 0.37. The relative viability (EPLC-272H; first compound 0.03162 µM) was 0.407 and the relative viability (EPLC-272H; first compound 0.1 µM) was 0.579.
